“And” between values parts separate entries of the source, which are not always exact repeats. Equal values may be shown once.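 Step 1: Grow cells in 96-well plates. Step 2: Expose to compound for 48 hours at 5 concentrations. Step 3: Interpolate endpoints linearly; if unreached, use highest concentration. The concentration for 50% growth inhibition is given as GI50. At the TGI there is no net growth.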
Experiments:
Experiment in all cases: NCI anticancer screen, dose series, 48 h
[1] = system: PC-3 prostate
[2] = system: A498 renal
[3] = system: MCF7 breast
[4] = system: A549 NSCLC
[5] = system: IGROV1 ovarian
[6] = system: UACC-257 melanoma
[7] = system: MDA-MB-435
[8] = system: SK-OV-3 ovarian

Row | Compound | GI50 [1] | TGI [1] | GI50 [2] | TGI [2] | GI50 [3] | TGI [3] | GI50 [4] | TGI [4] | GI50 [5] | TGI [5] | GI50 [6] | TGI [6] | GI50 [7] | TGI [7] | TGI [8] | GI50 [8]
1 | O=C(CSC(c1ccccc1)c1ccccc1)N/N=C/c1cccc(Cl)c1 | 19.4 µM | 35.7 µM | 14.9 µM | 29 µM | 19.1 µM | 38.4 µM | 15.1 µM | 40.1 µM | 15.2 µM | 28.8 µM | 14.6 µM | 32.1 µM | 22.5 µM | 43.7 µM |  | 
2 | CN(C)CCNC(=O)Cn1cc([N+](=O)[O-])c(=O)c2ccccc21 |  | > 100 µM |  | > 100 µM |  | > 100 µM |  | > 100 µM |  | > 100 µM |  | > 100 µM |  | > 100 µM | > 100 µM | 
3 | Cc1cc(=O)[nH]o1 |  | > 100 µM |  |  |  | > 100 µM |  | > 100 µM |  | > 100 µM |  | > 100 µM |  | > 100 µM | > 100 µM | 
4 | O=C(Nc1ccc(Oc2ccc3nc(NC(=O)c4ccccc4)[nH]c3c2)cc1)Nc1cc(C(F)(F)F)ccc1F | 0.624 µM | 2.76 µM | 2.57 µM | > 25 µM | 0.758 µM | 5.14 µM | 0.846 µM | 13.3 µM | 1.47 µM | > 21.1 µM | 1.39 µM | 11.3 µM | 0.709 µM | 2.94 µM | 16.5 µM | 4.38 µM
5 | Cc1cnc(/C=N\NC(N)=S)c2cccc(N)c12 | > 22.7 µM | > 100 µM | 2.04 µM | > 100 µM | 1.5 µM | > 100 µM | 4.85 µM | > 100 µM | 2.4 µM | > 100 µM | 4.81 µM | > 38.8 µM | 3.9 µM | > 100 µM | > 100 µM | 3.14 µM
6 | CCCC[N+](CCCC)=c1ccc2nc3c(C)cc(N(CC)CC)cc3sc-2c1 | 0.0583 µM | 1.55 µM | 0.236 µM | 4.43 µM |  |  |  |  |  |  |  |  | 0.205 µM | 1.2 µM | 1.05 µM | 0.28 µM
7 | C=CC(C)(O)/C=C/C=C(\C)C(CC1OC1(C)C)OC(=O)/C(C)=C\C (configuration not stated) |  | > 100 µM |  | > 100 µM |  | > 100 µM |  | > 100 µM |  | > 100 µM |  | > 100 µM |  | > 100 µM | > 100 µM | 
8 | C/C(=N\N=C(\[Se])N1CCN(c2ccccn2)CC1)c1ccccn1 | 0.334 µM | 14.2 µM |  | 18.1 µM | 0.00278 µM | 14.3 µM | 0.0476 µM | 21.7 µM |  |  | 0.0047 µM | 12.8 µM | 0.0967 µM | 20.3 µM | 9.82 µM | 
9 | CCN1C(=O)NC(=O)C(C)(N2C(=O)c3c(F)c(F)c(F)c(F)c3C2=O)C1=O (configuration not stated) | 3.09 µM | 10.5 µM | 17.7 µM | 32.9 µM | 2.77 µM | 13.5 µM | 3.69 µM | 18.3 µM | 1.9 µM | 4.92 µM | 4.26 µM | 14 µM | 2.96 µM | 10.6 µM | 24.6 µM | 10.1 µM
10 | COc1ccc(C2=NN(C(=O)c3cc(OC)c(OC)c(OC)c3)C(c3ccc(Cl)cc3)C2)cc1OC (configuration not stated) | 1.07 µM | > 100 µM | 0.608 µM | 8.3 µM | 0.398 µM | 14.7 µM | 4.03 µM | > 100 µM | 2.11 µM | 40 µM | 8.6 µM | 77.8 µM |  |  | 27.4 µM | 2.89 µM
11 | O=S(=O)(O)c1ccc(-c2nnc(-c3ccccn3)nc2-c2ccc(S(=O)(=O)O)o2)o1 |  | > 100 µM |  | > 100 µM |  | > 100 µM |  | > 100 µM |  | > 100 µM |  |  |  | > 100 µM | > 100 µM | 
12 | C=CC(C=O)C1(O)CCOC(=O)/C1=C\N (configuration not stated) | > 100 µM | > 100 µM |  |  | > 100 µM | > 100 µM | > 100 µM | > 100 µM | > 100 µM | > 100 µM | > 100 µM | > 100 µM | > 100 µM | > 100 µM | > 100 µM | > 100 µM
13 | CC(C)(C#N)c1cc(F)cc(C(=O)Nc2cc(Nc3ncccc3-c3ncnc4nc[nH]c34)ccc2F)c1 | 7.67 µM | > 10 µM | 0.2 µM | 1.09 µM | 8.73 µM | > 10 µM | 5.49 µM | > 10 µM | 0.684 µM | > 10 µM |  |  | 0.307 µM | > 10 µM | > 10 µM | > 10 µM
14 | Cn1c(O)c(C(/C=C/c2ccccc2)=NCCN=C(/C=C/c2ccccc2)c2c(O)n(C)c(=O)n(C)c2=O)c(=O)n(C)c1=O |  |  | 16.6 µM | 40.7 µM | 15.9 µM | > 50 µM | 16.7 µM | > 50 µM | 20.7 µM | > 50 µM | 23.5 µM | > 50 µM | 18 µM | > 50 µM | > 50 µM | 19.9 µM
15 | CCOc1cc2c(cc1O)/C(=N\O)C[C@@H]1[C@@H]2CC[C@]2(C)[C@@H](O)CC[C@@H]12 | 0.767 µM and 0.491 µM | > 100 µM | 0.604 µM | > 100 µM | 0.0264 µM |  | 0.0854 µM | > 100 µM | 0.296 µM | > 100 µM |  |  |  |  |  | 
16 | c1ccc(-c2cc(C3CO3)c3ccccc3n2)cc1 (configuration not stated) |  | 41.2 µM |  | 39.8 µM |  | 47.8 µM |  | 40.4 µM |  | 36.6 µM |  | 42.7 µM |  | 35.5 µM | > 100 µM | 
17 | CCOC(=O)c1c2c(n(Cc3ccccc3)c1C)-c1ccccc1C(=O)C2=O | 6.83 µM | 19.8 µM | 24.6 µM | 60 µM | 5.23 µM | 20.9 µM | 16.8 µM | 36.4 µM | 4.35 µM | 20.1 µM | 28.4 µM | 69.2 µM | 29 µM | 87 µM | 37.2 µM | 19.8 µM
18 | O=C(Nc1ccc(Cl)cc1F)c1cc(I)ccc1O | 2.07 µM | 6.36 µM | 0.269 µM | 0.846 µM | 2.38 µM | 18.5 µM | 2.88 µM | > 100 µM | 1.51 µM | 50.4 µM | 0.812 µM | 6.64 µM | 2.08 µM | 7.9 µM | 1.24 µM | 0.132 µM
